Assay results from patent publication US20250250642A1, “APOE GENOTYPING IN CANCER PROGNOSTICS AND TREATMENT” (The Rockefeller University, priority 2019, published 2025).

Tests used:
[1] = system: YUMM1.7 tumors; experiment: Growth of YUMM1.7 tumors in human APOE knock-in mice under LXR-agonistic treatment; assay type: in vivo, mouse; conditions: RGX-104 in chow, approximate target dose 100 mg/kg body weight, from day 3 post injection
Experimental: To assess the impact of APOE genotype on the growth of syngeneic melanoma, 1×10^5 YUMM1.7 cells were subcutaneously injected into the flank of 6-10-weeks-old, sex-matched human APOE targeted replacement mice. Cells were injected in a total volume of 100 μL, and YUMM1.7 cells were mixed 1:1 with growth factor reduced Matrigel (356231, Corning) before injection. Tumor size was measured on the indicated days using digital calipers, and tumor volume was calculated as (small diameter)^2×(large diameter)×Π/6. In experiments employing YUMMER1.7 cells, 5×10^5 cells resuspended in PBS were injected subcutaneously into the flank. For LXR-agonistic treatment, mice were administered chow supplemented with the synthetic LXR-agonist RGX-104 (Rgenix (Tavazoie, M., et al. (2018) Cell, 172 (4), 825-840)) at 628.5 mg/kg chow (Research Diets, approximate target dose of 100 mg/kg body weight) starting on day 3 post injection. For anti-PD1 treatment, mice were injected intraperitoneally with 250 μg and 125 μg of anti-PD-1 antibody (BioXCell, clone RMP1-14) on days 6 and 9 post tumor cell injection, respectively. Control mice received PBS injections on the same days. For survival analysis in the YUMMER1.7 model, mice were euthanized when the tumor volume exceeded 1000 mm^3. Therapy responses were considered complete (CR, complete response) when tumor volumes fell below 16 mm^3 (lowest limit of detection).

[2] = system: solid cancers; experiment: RGX-104 in patients with solid cancers, radiographic tumor response by ApoE genotype; assay type: in vivo, human; conditions: monotherapy or combination with docetaxel, nivolumab or ipilimumab
Experimental: RGX-104 was administered to patients with solid cancers as a monotherapy or in combination with either docetaxel, nivolumab, or ipilimumab. Fifty-one patients were evaluable for both radiographic assessment of tumor response and ApoE genotype. Below is a table showing the number of patients with each genotype and the number of clinical responses (Partial Responses) to the therapy.

[3] = ApoE genotype E2/E3 (10 patients)
[4] = ApoE genotype E2/E4 (3 patients)
[5] = ApoE genotype E3/E3 (30 patients)
[6] = ApoE genotype E3/E4 (8 patients)

C[C@H](CCOc1cccc(CC(=O)O)c1)N(Cc1cccc(C(F)(F)F)c1Cl)CC(c1ccccc1)c1ccccc1 [RGX-104, 2-[3-[(3R)-3-[[2-chloro-3-(trifluoromethyl)phenyl]methyl-(2,2-diphenylethyl)amino]butoxy]phenyl]acetic acid]
efficacy of LXR agonism (tumor growth) ([1]; APOE2 mice): completely abrogated
efficacy of LXR agonism (tumor growth) ([1]; APOE4 mice): robust anti-tumor effects
Number of Partial Responses [2, 3]: 0
Percent of patients with a Partial Response [2, 3]: 0%
Number of Partial Responses [2, 4]: 1
Percent of patients with a Partial Response [2, 4]: 33.3%
Number of Partial Responses [2, 5]: 1
Percent of patients with a Partial Response [2, 5]: 3.3%
Number of Partial Responses [2, 6]: 1
Percent of patients with a Partial Response [2, 6]: 12.5%
